# In patent US8597904B2, “Pharmaceutical compositions for the treatment of conditions responsive to proteasome inhibition” (priority 2007, dated 2013):
# pIC50: −log10 of the molar value.
# Columns and labels:
# [1] = tested on: poly (ADP-ribose) polymerase (PARP); assay: Western blot of PARP cleavage in SKOV3 cells; format: cell-based, human; settings: SKOV3, 20 μM, 24 and 48 hours
# Protocol: The induction of an apoptotic response in cancer cells by the addition of syringolin A was verified by monitoring the cleavage of poly (ADP-ribose) polymerase (PARP), a common response during apoptosis. SK-N-SH cells were cultured in the presence or absence of 20 μM syringolin A for 0, 24 and 48 hours, and cell lysates were then generated as described in Example 4 and probed for the presence of PARP by Western blotting using rabbit polyclonal anti-PARP (#9542) (diluted 1:1000) and the HRP-linked anti-rabbit secondary antibody described in Example 4. The results were representative of four independent experiments. […] The treatment of cells for 48 hours further increased the levels of cleaved PARP, whereas noncleaved PARP disappeared. In a similar manner, syringolin A induced PARP cleavage in SKOV3 cells, but noncleaved PARP was still detected 48 hours after treatment (FIG. 5B).
# SK-N-SH cells [2] = settings: neuroblastoma (NB) cells, Coleman et al. 2006; cited from earlier work
# SK-N-SH cells [3] = assay: annexin V assay by flow cytometry; format: cell-based, human; settings: 25 μM, 48 hours
# Protocol: SK-N-SH cells at a concentration of 1.0×10^5 cells per ml were seeded in 12-well plates containing 1 ml of culture medium per well. After 24 hours, 10 μl of syringolin A (25 μM final concentration) or an equal volume of sterile water (control) was added per well. Cells were incubated for 48 hours, trypsinized, washed twice in phosphate-buffered saline (PBS) and were counted; 1-2×10^5 cells suspended in 0.1 ml of 1× assay buffer per vial according to the manufacturer's instructions (BD Biosciences, Palo Alto, Calif.). Cells were stained with annexin V-FITC (5 μl) for 15 minutes in the dark, at room temperature. Assay buffer (0.4 ml) was added, and 5000 cells were analyzed using a FACScan flow cytometer (Becton Dickinson, San Jose, Calif.). The […] program was used for data analysis.
# LAN-1 cells = assay: sulphorhodamine B (SRB) cell viability / proliferation assay; format: cell-based, human
# Source text: (§1) The mammalian cell lines used to test the effects of syringolin A were human neuroblastoma (NB) cells with either wild type p53 (line SK-N-SH, provided by the American Type Culture Collection [ATCC], Manassas, Va.; Davidoff, et al. 1992. Oncogene 7:127-133; McKenzie, et al. 1999. Clin. Cancer Res. 5:4199-4207; Tweddle, et al. 2001. Am. J. Pathol. 158:2067-2077), mutant p53 (line LAN-1, cysteine to stop codon at residue 182, provided by Dr. Robert Seeger, University of California, Los Angeles, Calif.; Davidoff, et al. 1992. Oncogene 7:127-133; Tweddle, et al. 2001. Cancer Res. 61:8-13; Tweddle, et al. 2003. Cancer Lett. 197:93-98), or human ovarian cancer cells (line SKOV3, provided by Dr. Bonnie Warn-Cramer, Cancer Research Center of Hawaii). NB cells were maintained in RPMI 1640 (Biosource, Rockville, Md.) containing 10% (v/v) heat-inactivated fetal bovine serum (FBS) (Invitrogen, Carlsbad, Calif.), penicillin (100 IU/ml), and streptomycin (100 μg/ml) as previously described (Wallick, et al. 2005. Oncogene 24:5606-5618). SKOV3 cells were maintained in McCoy's 5A with L-glutamine (Mediatech Inc., Herndon, Va.) and containing 10% (v/v) heat-inactivated fetal bovine serum […] (Invitrogen, Carlsbad, Calif.) and gentamicin ([…]). Cells were seeded 18-24 hours before GlbA or SylA treatment and analyzed after 24 and/or 48 hours. Cell numbers were determined using a haemacytometer in the presence of trypan blue (Fisher Scientific, Pittsburgh, Pa.).
# (§2) To then test the effects of syringolin A on proliferation, cells at 0.25-0.5×10^5 cells per ml were seeded in 96-well microtiter plates containing 100 μl of culture medium per well. After 24 hours, syringolin A was added to wells to a final concentration of 0.5 μm to 100 μm. Syringolin was not added to parallel samples of control cells. Cells were incubated for 48 hours, photographed, and the viability of cells (calculated as a percentage of control cell counts) was determined using the sulphorhodamine B (SRB) assay as previously reported (Skehan, et al. 1990. J. Natl. Cancer Inst. 82:1107-1112, which is incorporated herein by reference in its entirety). In brief, cell culture medium was removed from the microtiter plate and adherent cells were fixed with 10% (w/v) trichloracetic acid (TCA) for 30 minutes at room temperature. Following four washes with tap water, 100 μl of SRB (Sigma Chemical Co., St. Louis, Mo.) (0.4 g/100 ml 1% [v/v] glacial acetic acid in water) was added and the plate was then incubated for 30 minutes at room temperature, and rinsed four times with 3% (v/v) glacial acetic acid. After addition of 200 μl of 10 mM […] (not pH adjusted) to each well, the plate was incubated on an orbital shaker for 30 minutes until the SRB was uniformly dissolved. The absorption at a wavelength of 560 nm was read using an HTS 7000 Plus Bioassay Reader or a Victor 3, 1420 Multilabel Counter (PerkinElmer, Inc. Boston, Mass.). To record cell morphology with and without syringolin treatment, photomicrographs were taken of cells in 12-well plates or 96-well plates, in the presence or absence of 25 μM syringolin A, using a Nikon Diaphot inverted microscope (Nikon Corp., Tokyo, Japan) and a Carl Zeiss Axiovert 200M inverted microscope (Carl Zeiss, Goettingen, Germany), both equipped with a digital camera and computer software for image processing. Power of magnification for SK-N-SH, LAN-1, and SKOV3 cells was 20×, and for Rat-1 cells was 10×.
# SK-N-SH cells [4] = assay: as above; format: cell-based, human; settings: 48 hours
# Source text: as §1, §2
# Papaya latex papain = target: T1, Papaya latex papain (Carica papaya, UniProt P00784); assay: SensoLyte Green Protease Fluorometric Assay, papain inhibition; format: biochemical; settings: syringolin A up to 500 μM
# T1 construct: Papaya latex papain (Sigma-Aldrich); purchased Sigma-Aldrich; host or cells: papaya latex
# Protocol: To test the specificity of syringolin A inhibition of proteasome activities, bovine pancreas trypsin (Pierce) and Papaya latex papain (Sigma-Aldrich) inhibition assays with syringolin A were performed with the SensoLyte™ Green Protease Fluorometric Assay Kit (AnaSpec., San Jose, Calif., USA) according to the instructions of the manufacturer. Reaction volumes of 100 μl contained an enzyme concentration of 200 ng/ml and various amounts of test inhibitors. Protease activity was monitored at 33° C. in a FluoroCount Microplate Fluorometer (FluoroCount, Packard, Canberra, Australia) using 485 nm excitation and a 550 nm emission filters.
# T1 sequence (P00784 134-345): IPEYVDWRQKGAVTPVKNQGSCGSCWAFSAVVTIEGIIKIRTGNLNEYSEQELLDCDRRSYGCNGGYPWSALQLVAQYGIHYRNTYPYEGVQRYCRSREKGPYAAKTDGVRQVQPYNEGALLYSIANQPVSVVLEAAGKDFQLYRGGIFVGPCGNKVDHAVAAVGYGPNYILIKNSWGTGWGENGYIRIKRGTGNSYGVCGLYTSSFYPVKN
smiles,measurement,setting,value
CC(C)[C@H](NC(=O)N[C@H](C(=O)N[C@H]1/C=C/CCNC(=O)/C=C/[C@H](C(C)C)NC1=O)C(C)C)C(=O)O [syringolin A],PARP cleavage,[1],induces apoptosis-associated PARP cleavage
same,reaction with Annexin V,SK-N-SH cells [2],strongly react with Annexin V
same,annexin V binding,SK-N-SH cells [3],strongly bound annexin V
same,pIC50,"LAN-1 cells; Homo sapiens, LAN1, LAN-1, 48 hours, SRB assay, read-out: IC50 (inhibitor concentration at which cell proliferation rate is reduced by 50% relative to control)",4.60 to 4.70
same,cell morphology,"LAN-1 cells; LAN-1, 25 μM, 48 hours",induced significant morphological changes
same,cell viability,"LAN-1 cells; LAN-1, 0.5 to 100 μm, 48 hours, dose-dependent",reduced the cell viability
same,cell morphology,SK-N-SH cells [4]; 25 μM,induced significant morphological changes
same,cell viability,"SK-N-SH cells [4]; 0.5 to 100 μm, dose-dependent",reduced the cell viability
same,pIC50,"SK-N-SH cells [4]; Homo sapiens, SRB assay, read-out: IC50 (inhibitor concentration at which cell proliferation rate is reduced by 50% relative to control)",4.60 to 4.70
same,papain activity,Papaya latex papain,not affected
